The values that follow are results of earlier work, collected in patent US20220047724A1, “NOVEL TRICARBOCYANINE-CYCLODEXTRIN(S) CONJUGATES AND USE THEREOF” (CYANAGEN S.R.L., priority 2014, published 2022).

For data set [1] the following is noted: Sigma-Aldrich Product No. H-107, vendor data.

Like-named read-outs stand apart in the source and are kept apart here.

Regarding 2-hydroxypropyl-β-cyclodextrin [HβCD], the Toxicity result is on record as “non-toxic” in the data set with rabbits (rabbit, in vivo) and “non-toxic” in the data set with mice (mouse, in vivo). In addition, in data set [1], the Water solubility is 45 g/100 mL.
2-hydroxypropyl-γ-cyclodextrin [HγCD]: the Toxicity result in the data set on rabbits (rabbits) and in the data set with mice (mice) was “non-toxic” each time.
